The subject of one assay is apo- and holoPGHS-2. Description: Inactivation of cyclooxygenase activity of apo- and holoPGHS-2 and reactivation by hydroxylamine. The assay is classed as biochemical, human. Particulars: 10 mM inhibitor, pH 8, 37° C. As for the experimental part:
Apo or HoloPGHS-2 ([…]) was inactivated with a 1000-fold excess of 2-acetoxythioanisole (2) at 22.5° C. in 100 mM Tris-HCl buffer, pH 8 containing […] phenol for the indicated time period, and then hydroxylamine (80 mM) in 10 mM Tris-HCl buffer, pH 7.5 was added as indicated by the arrow. Periodic 0.16 μM aliquots of holoPGHS-2 (open circles), holoPGHS-2+2-acetoxythioanisole (open squares), apoPGHS-2 (closed circles), apoPGHS-2+2-acetoxythioanisole (closed squares) were analyzed for remaining cyclooxygenase activity.
Oxygen consumption was measured at 37° C. with a Gilson model 5/6 oxygraph (Gilson Medical Electronics, Inc., Middleton, Wis.) equipped with a clark electrode and a thermostated cuvette. […] Oxygen uptake was initiated by the addition of 100 μM sodium arachidonate, and the initial reaction velocity was determined from the linear portion of the oxygen uptake curve.
ApoPGHS-2 (5 μM) or apoPGHS-2 (5 μM), reconstituted with 2 equivalents of hematin in 100 mM Tris-HCl, pH 8 at 37° C. containing 500 μM phenol was treated with 2-acetoxy-1-thioanisole (10 mM). Periodically, 0.16 μM enzyme aliquots were analyzed for remaining cyclooxygenase activity as described earlier. […] Hydroxylamine hydrochloride (80 mM) in 10 mM Tris-HCl, pH 7.5 was then added to the incubation mixture and 0.16 μM enzyme aliquots were analyzed for reactivation of the inhibited cyclooxygenase-2. […]

A further assay addresses T1, human PGHS-2 (Homo sapiens, UniProt P35354).
T1 construct: made in house; host or cells: insect cells (baculovirus vectors)
T1 sequence (P35354 18-604): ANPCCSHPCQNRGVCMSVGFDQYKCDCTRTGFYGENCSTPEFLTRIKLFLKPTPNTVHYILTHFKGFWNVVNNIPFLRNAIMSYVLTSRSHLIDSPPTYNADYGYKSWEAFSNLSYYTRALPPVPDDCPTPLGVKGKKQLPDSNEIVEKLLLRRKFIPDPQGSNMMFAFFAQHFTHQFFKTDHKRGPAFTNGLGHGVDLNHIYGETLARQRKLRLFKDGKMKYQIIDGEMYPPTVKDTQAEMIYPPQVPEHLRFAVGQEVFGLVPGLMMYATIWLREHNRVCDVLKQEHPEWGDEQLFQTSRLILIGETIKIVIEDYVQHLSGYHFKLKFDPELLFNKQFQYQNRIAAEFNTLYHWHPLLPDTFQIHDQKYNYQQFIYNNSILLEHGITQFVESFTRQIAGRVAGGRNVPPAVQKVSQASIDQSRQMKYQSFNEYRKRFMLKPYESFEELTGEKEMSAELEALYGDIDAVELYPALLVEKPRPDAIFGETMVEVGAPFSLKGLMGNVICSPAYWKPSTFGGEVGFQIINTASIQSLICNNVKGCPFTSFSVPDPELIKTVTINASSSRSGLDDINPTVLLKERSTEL
Description: Time- and concentration-dependent inhibition of human PGHS-2, TLC assay (3 h preincubation). As to conditions: for IC50 / IC50 (PGHS-1)/IC50 (PGHS-2): Table 2; for IC50: PGHS-2 88 nM; for IC50 (PGHS-1)/IC50 (PGHS-2): selectivity ratio, 180 min. The assay is classed as biochemical. As for the experimental part:
(§1) Cyclooxygenase activity of ovine PGHS-1 (22 nM) or human PGHS-2 (88 nM) was assayed by TLC. Reaction mixtures of 200 μL consisted of hematin-reconstituted protein in 100 mM Tris-HCl, pH 8.0, 500 μM phenol, and [1-^14 C]arachidonic acid (50 μM, 57 mCi/mmol). For the time-dependent inhibition assay, hematin-reconstituted PGHS-1 (22 nM) or PGHS-2 (88 nM) was preincubated at room temperature for 2 hours and then at 0° C. for 1 hour with varying concentrations of inhibitor in DMSO followed by the addition of [1-^14 C]arachidonic acid (50 μM) for 30 seconds at 37° C. Reactions were terminated by solvent extraction in diethyl ether/methanol/1 M citrate, pH 4.0 (30:4:1). The organic phase was spotted on a TLC plate (Amersham Corp.). The plate was developed with ethyl acetate/methylene chloride/glacial acetic acid (75:25:1) at 4° C. Radiolabeled products were quantitated with a radioactivity scanner (Bioscan, Inc., Washington, D.C.).
(§2) conducted at room temperature for 3 hours. The cyclooxygenase reaction was
(§3) initiated by the addition of 14C-arachidonic acid (50 μM) to the
(§4) incubation mixtures at 37 C for 30 seconds.
(§5) conducted at room temperature for 3 hours. The cyclooygenase reaction was
(§6) initiated by the addition of ^14 C-arachidonic acid ([…]) to the
(§7) incubation mixtures at 37° C. for 30 sec.

The subject of another assay is holoPGHS-2. Description: pH dependence of time-dependent inhibition of cyclooxygenase activity of holoPGHS-2, oxygen uptake assay. The assay is classed as biochemical, human. The method, then: ApoPGHS-2 (5 μM, 1.62 μg/μL) in 100 mM sodium phosphate buffer of pH 6, 7, 8, and 9 was reconstituted with 2 equivalents of hematin. Compound 2 (1000-fold excess) in DMSO was added to the reaction mixture. Periodically, 0.16 μM enzyme aliquots (final inhibitor concentration ~178 μM) were analyzed for remaining cyclooxygenase activity. Open circles, cyclooxygenase activity of holoPGHS-2 treated with 2 at pH 6; closed circles, cyclooxygenase activity of holoPGHS-2+2 at pH 7; open squares, cyclooxygenase activity of holoPGHS-2+2 at pH 8; closed squares, cyclooxygenase activity of holoPGHS-2+2 at pH 9. Control experiments in the absence of inhibitor remained linear throughout the assay period.
ApoPGHS-2 (5 μM, 1.62 μg/μL) in 100 mM sodium phosphate buffer of pH 6, 7, 8, and 9 was reconstituted with 2 equivalents of hematin. Compound 54 (181 μM) in DMSO was added to the reaction mixture. Periodically, 0.16 μM enzyme aliquots (final inhibitor concentration ~6 μM) were analyzed for remaining cyclooxygenase activity. […]
Oxygen consumption was measured at 37° C. with a Gilson model 5/6 oxygraph (Gilson Medical Electronics, Inc., Middleton, Wis.) equipped with a clark electrode and a thermostated cuvette. […] Oxygen uptake was initiated by the addition of 100 μM sodium arachidonate, and the initial reaction velocity was determined from the linear portion of the oxygen uptake curve. […]

Assay [1] relates to PGHS-2 in activated RAW264.7 macrophages. Description: Inhibition of PGHS-2 in activated RAW264.7 macrophages. Type of assay: cell-based, murine. Particulars: RAW 264.7, LPS and γ-interferon; for inhibitory effect on PGHS-2 in activated macrophages compared with aspirin: FIGS. 14 and 15, aspirin 100 μM; for inhibition of cyclooxygenase activity in activated macrophages: FIG. 16. The method, then:
RAW 264.7 cells were activated for 7 hours at 37° C. in serum free DMEM with LPS (500 ng/mL) and γ-interferon (10 U/mL).
RAW 264.7 cells were activated for 7 hours at 37° C. in serum free DMEM with LPS (500 ng/mL) and γ-interferon (10 U/mL). […] The cyclooxygenase reaction was initiated by adding [1-^14 C]-arachidonic acid (20 μM) for 15 min at 37° C.
The murine macrophage cell line RAW264.7 were seeded overnight for 30% confluency the following morning. Overnight DMEM and fetal bovine serum (FBS) was removed and 2 mL DMEM containing 1.5% FBS±500 ng/mL LPS and 10 units/mL interferon-γ were added for 7.5 hours at 37° C. […] Arachidonic acid metabolism was measured by adding 20 μM 14C-AA for 15 min at room temperature. Aliquots (200 μL) were removed into termination solution and run on TLC plates. In the case of 2-acetoxythioanisole (2), following 8 hours of activation, 500 μM 2 was added for the next 3.5 hours. After 11.5 hours of activation, 20 μM [1-^14 C]arachidonic acid was incubated with the cells for 20 minutes at room temperature, and total products were determined by TLC.

Assay [2] concerns the target T2, ovine PGHS-1 (Ovis aries, UniProt P05979).
T2 construct: PGHS-1 was purified from sheep seminal vesicles as described earlier; tissue Oxford Biomedical Research, Inc. (supplier of the sheep seminal vesicles); host or cells: sheep seminal vesicles
T2 sequence (P05979 25-600): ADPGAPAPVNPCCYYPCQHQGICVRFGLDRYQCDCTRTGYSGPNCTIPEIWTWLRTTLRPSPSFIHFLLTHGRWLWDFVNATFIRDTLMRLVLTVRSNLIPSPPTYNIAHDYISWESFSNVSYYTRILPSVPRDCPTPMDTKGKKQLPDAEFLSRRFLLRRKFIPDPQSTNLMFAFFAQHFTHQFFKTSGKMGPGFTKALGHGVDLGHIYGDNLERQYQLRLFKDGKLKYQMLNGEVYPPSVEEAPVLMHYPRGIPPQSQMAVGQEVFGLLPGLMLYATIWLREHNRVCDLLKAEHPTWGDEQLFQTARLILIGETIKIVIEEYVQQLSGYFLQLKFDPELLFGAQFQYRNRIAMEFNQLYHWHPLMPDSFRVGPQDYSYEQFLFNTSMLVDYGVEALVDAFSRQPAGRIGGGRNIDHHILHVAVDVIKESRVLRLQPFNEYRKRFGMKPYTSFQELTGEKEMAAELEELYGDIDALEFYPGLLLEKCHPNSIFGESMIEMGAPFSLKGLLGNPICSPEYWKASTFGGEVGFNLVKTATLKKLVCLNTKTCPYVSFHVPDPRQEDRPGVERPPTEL
Briefly: Time- and concentration-dependent inhibition of ovine PGHS-1, TLC assay (3 h preincubation). The assay is classed as biochemical. As to conditions: Table 2; PGHS-1 22 nM, 3 h at room temperature. As for the experimental part:
as §1, §2, §3, §4, §5, §6, §7

A further assay relates to apoPGHS-1. Description: Inhibition of cyclooxygenase activity of apoPGHS-1 and reactivation by hydroxylamine. Type of assay: biochemical, ovine.
Assay [3] has as its target T2, ovine PGHS-1. Briefly: Time- and concentration-dependent inhibition of ovine PGHS-1, TLC assay (3 h preincubation). Type of assay: biochemical. Particulars: FIG. 5; 1 h at room temperature.

As for `CSc1ccccc1OC(C)=O` [Compound 2, 2-acetoxythioanisole], the “inhibition of cyclooxygenase activity” value in the assay on apo- and holoPGHS-2 is given as “greater than 70%”. Further, at human PGHS-2 (3 h at room temperature), 250 µM corresponded to half-maximal inhibition (IC50). At human PGHS-2, the “IC50 (PGHS-1)/IC50 (PGHS-2)” value is given as greater than 100. Moreover, the “inhibition of cyclooxygenase activity of holoPGHS-2” value in the assay on holoPGHS-2 (FIG. 7, pH 9, 10 mM inhibitor) is “greatly inhibited”. Besides, the “inhibitory effect on PGHS-2 in activated macrophages compared with aspirin” value in assay [1] is given as “greater inhibitory effect on PGHS-2 in activated macrophages than aspirin”.
On to `CCCCCCCSc1ccccc1OC(C)=O` [Compound 54, 2-Acetoxyphenylheptyl sulfide], for which the “inhibition of cyclooxygenase activity of human holoPGHS-2 (in words)” value on human PGHS-2 (FIG. 9, 3 h at room temperature) is “greatly inhibited”. In addition, the IC50 amounted to 2 µM against human PGHS-2 (3 h at room temperature) and 6 µM against ovine PGHS-1 [2]. Moreover, at human PGHS-2, the “IC50 (PGHS-1)/IC50 (PGHS-2)” value is 3. For the same compound, the “pH dependency of inhibition of cyclooxygenase activity of human holoPGHS-2” value with holoPGHS-2 (FIG. 10, pH 6, 7, 8, 9, 181 μM) was “greatest inhibition seen at pH 9”. Further, the “inhibition of cyclooxygenase activity in activated macrophages” value in assay [1] is on record as “greatly inhibited”. Further, the “inhibitory effect on PGHS-2 in activated macrophages compared with aspirin” value in assay [1] is reported as “greater inhibitory effect on PGHS-2 in activated macrophages than aspirin”.
Regarding `CCCCC#CCSc1ccccc1OC(C)=O` [Compound 87, 2-Acetoxyphenyl-hept-2-ynyl sulfide], on human PGHS-2 (FIGS. 12 and 13, 1-16 μM), the “inhibition of cyclooxygenase activity of human holoPGHS-2 (in words)” value is reported as “greatly inhibited”. The “IC50 (PGHS-1)/IC50 (PGHS-2)” value at human PGHS-2 is given as 21. The “inhibition of cyclooxygenase activity in activated macrophages” value in assay [1] was “greatly inhibited”. The compound further came in with an IC50 on ovine PGHS-1 [2] greater than 17 µM.
As for `CC(=O)n1ccnc1` [N-acetylimidazole], the “inhibition of cyclooxygenase activity of apoPGHS-1” value in the assay with apoPGHS-1 is “inhibits the cyclooxygenase activity of apoPGHS-1”. In the assay with apoPGHS-1 (hydroxylamine added), the “reactivation after addition of hydroxylamine” value is on record as “the enzyme activity is regenerated”.
Take `CC(=O)Oc1ccccc1C(=O)O` [aspirin]: the “inhibitory effect on PGHS-1 versus PGHS-2” value against ovine PGHS-1 [3] is reported as “greater inhibitory effect on PGHS-1 than PGHS-2”.

As a reminder, the IC50 is the concentration that inhibits the measured activity by half.

For the origin of these results see patent US6284918A, “Selective inhibitors of prostaglandin endoperoxide synthase-2” (priority 1999, dated 2001).
